Laboratory results from PubChem BioAssay AID248 (DTP/NCI, 2004).
Inconclusive results and toxic doses are left out. Cut-off read from the data, not from the text of the source: active = T/C of 150% or more; inactive = T/C below 125%.

Tested on: L1210 leukemia ip in BDF1 mice, survival T/C
Experiment: NCI In Vivo Anticancer Drug Screen. Data for tumor model L1210 Leukemia (intraperitoneal) in B6D2F1 (BDF1) mice
Conditions: endpoint: mean survival time, higher = longer survival
Summary of the method: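 Value reflects the ratio of survival in compound-treated mice to survival in vehicle-treated controls, with both groups carrying the same transplanted tumor.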

[1] = dose: 100.0 mg/kg/injection, schedule: Q04DX003 (ip), vehicle: saline
[2] = dose: 200.0 mg/kg/injection, schedule: Q04DX003 (ip), vehicle: saline
[3] = dose: 100.0 mg/kg/injection, schedule: Q04DX002 (ip), vehicle: saline
[4] = dose: 200.0 mg/kg/injection, schedule: Q04DX002 (ip), vehicle: saline
[5] = dose: 400.0 mg/kg/injection, schedule: Q04DX002 (ip), vehicle: saline
[6] = dose: 100.0 mg/kg/injection, schedule: Q01DX001 (ip), vehicle: saline
[7] = dose: 200.0 mg/kg/injection, schedule: Q01DX001 (ip), vehicle: saline
[8] = dose: 400.0 mg/kg/injection, schedule: Q01DX001 (ip), vehicle: saline
[9] = dose: 50.0 mg/kg/injection, schedule: Q01DX009 (ip), vehicle: saline
[10] = dose: 100.0 mg/kg/injection, schedule: Q01DX009 (ip), vehicle: saline
[11] = dose: 200.0 mg/kg/injection, schedule: Q01DX009 (ip), vehicle: saline
[12] = dose: 100.0 mg/kg/injection, schedule: Q01DX009 (ip), vehicle: saline with Tween-80
[13] = dose: 200.0 mg/kg/injection, schedule: Q01DX009 (ip), vehicle: saline with Tween-80
[14] = dose: 100.0 mg/kg/injection, schedule: Q01DX001 (ip), vehicle: carboxymethylcellulose (CMC)
[15] = dose: 200.0 mg/kg/injection, schedule: Q01DX001 (ip), vehicle: carboxymethylcellulose (CMC)
[16] = dose: 400.0 mg/kg/injection, schedule: Q01DX001 (ip), vehicle: carboxymethylcellulose (CMC)
[17] = dose: 100.0 mg/kg/injection, schedule: Q01DX001 (ip), vehicle: other
[18] = dose: 200.0 mg/kg/injection, schedule: Q01DX001 (ip), vehicle: other

Measured: T/C

CC(CNc1ccc(Cl)cc1)(CNc1ccc(Cl)cc1)[N+](=O)[O-]
inactive: [1] 92 % of control | [2] 88 % of control | dose: 400.0 mg/kg/injection, schedule: Q04DX003 (ip), vehicle: saline 92 % of control

Cc1ccn(C)n1
inactive: [3] 103 % of control | [4] 97 % of control | [5] 93 % of control

C=Cc1c[nH]c(=O)[nH]c1=O
inactive: dose: 25.0 mg/kg/injection, schedule: Q04DX002 (ip), vehicle: Klucel (hydroxypropylcellulose) (HPC) 94 % of control | dose: 50.0 mg/kg/injection, schedule: Q04DX002 (ip), vehicle: Klucel (hydroxypropylcellulose) (HPC) 94 % of control | dose: 100.0 mg/kg/injection, schedule: Q04DX002 (ip), vehicle: Klucel (hydroxypropylcellulose) (HPC) 102 % of control

CC/C(=N/OC(=O)N(C)C)c1ccccc1
inactive: [6] 96 % of control | [7] 100 % of control | [8] 104 % of control

O=c1[nH]c2ccccc2n1C1OC(CO)C(O)C1O (stereo unspecified)
inactive: [6] 98 % of control | [7] 93 % of control | [8] 100 % of control

CC1CN=C(c2ccc(O)cc2)S1 (stereo unspecified)
inactive: [9] 102 % of control | dose: 100.0 mg/kg/injection, schedule: Q01DX005 (ip), vehicle: saline 104 % of control | [10] 106 % of control | [3] 96 % of control | dose: 200.0 mg/kg/injection, schedule: Q01DX005 (ip), vehicle: saline 104 % of control | [11] 102 % of control | [4] 104 % of control | [5] 107 % of control

O=Cc1cccc(/C=N/Nc2nnc(N/N=C/c3cccc(C=O)c3)c3ccccc23)c1
inactive: dose: 50.0 mg/kg/injection, schedule: Q01DX001 (ip), vehicle: saline 98 % of control | [6] 98 % of control | [7] 90 % of control | [8] 93 % of control

CCCCN(CCCC)CCC(=O)OCC
inactive: dose: 100.0 mg/kg/injection, schedule: Q04DX003 (ip), vehicle: saline with Tween-80 94 % of control | dose: 200.0 mg/kg/injection, schedule: Q04DX003 (ip), vehicle: saline with Tween-80 101 % of control | dose: 400.0 mg/kg/injection, schedule: Q04DX003 (ip), vehicle: saline with Tween-80 89 % of control

COc1cc2ccc3c(c2cc1OC)CNCC3
inactive: [9] 104 % of control | [10] 104 % of control | [1] 116 % of control | [11] 88 % of control | [2] 102 % of control

CC1CC(C)(C)N=C(c2cccc(Br)c2)O1 (stereo unspecified)
inactive: [12] 103 % of control | [13] 103 % of control | dose: 400.0 mg/kg/injection, schedule: Q01DX009 (ip), vehicle: saline with Tween-80 92 % of control

Nc1nc2nnc(-c3ccccc3)c(-c3ccccc3)n2n1
inactive: dose: 100.0 mg/kg/injection, schedule: Q01DX001 (ip), vehicle: Klucel (hydroxypropylcellulose) (HPC) 93 % of control | dose: 100.0 mg/kg/injection, schedule: Q04DX003 (ip), vehicle: Klucel (hydroxypropylcellulose) (HPC) 96 % of control | dose: 200.0 mg/kg/injection, schedule: Q01DX001 (ip), vehicle: Klucel (hydroxypropylcellulose) (HPC) 93 % of control | dose: 200.0 mg/kg/injection, schedule: Q04DX003 (ip), vehicle: Klucel (hydroxypropylcellulose) (HPC) 101 % of control | dose: 400.0 mg/kg/injection, schedule: Q01DX001 (ip), vehicle: Klucel (hydroxypropylcellulose) (HPC) 92 % of control | dose: 400.0 mg/kg/injection, schedule: Q04DX003 (ip), vehicle: Klucel (hydroxypropylcellulose) (HPC) 91 % of control

NC(=S)N/N=C/c1ccc([N+](=O)[O-])s1 (tested in a mixture with another compound)
inactive: [14] 92 % of control | [15] 97 % of control | [16] 94 % of control

Ic1cccc(Oc2ccccc2)c1
inactive: [12] 114 % of control | [13] 91 % of control

COc1ccc(C(=C(CC(=O)O)C(=O)OC(C)(C)C)c2ccc(OC)c(OC)c2)cc1OC
inactive: [14] 96 % of control | dose: 100.0 mg/kg/injection, schedule: Q01DX009 (ip), vehicle: carboxymethylcellulose (CMC) 91 % of control | [15] 97 % of control | dose: 200.0 mg/kg/injection, schedule: Q01DX009 (ip), vehicle: carboxymethylcellulose (CMC) 95 % of control | [16] 94 % of control | dose: 400.0 mg/kg/injection, schedule: Q01DX009 (ip), vehicle: carboxymethylcellulose (CMC) 91 % of control | dose: 600.0 mg/kg/injection, schedule: Q01DX009 (ip), vehicle: carboxymethylcellulose (CMC) 91 % of control

C1CCN(c2c3c(nc4nnnn24)CCC3)CC1
inactive: dose: 5.0 mg/kg/injection, schedule: Q01DX001 (ip), vehicle: other 98 % of control | dose: 10.0 mg/kg/injection, schedule: Q01DX001 (ip), vehicle: other 96 % of control | dose: 20.0 mg/kg/injection, schedule: Q01DX001 (ip), vehicle: other 98 % of control | dose: 40.0 mg/kg/injection, schedule: Q01DX001 (ip), vehicle: other 110 % of control | dose: 80.0 mg/kg/injection, schedule: Q01DX001 (ip), vehicle: other 96 % of control | [17] 96 % of control | [18] 96 % of control

OCC1OC(n2ccc3ccc(F)cc32)C(O)C1O (stereo unspecified)
inactive: dose: 60.0 mg/kg/injection, schedule: Q01DX001 (ip), vehicle: saline 97 % of control | dose: 120.0 mg/kg/injection, schedule: Q01DX001 (ip), vehicle: saline 108 % of control

CC(CCCN(CCCl)CCCl)Nc1c2ccccc2nc2c1ccc1ccccc12 (stereo unspecified)
inactive: dose: 0.15 mg/kg/injection, schedule: Q01DX009 (ip), vehicle: saline 109 % of control | dose: 0.31 mg/kg/injection, schedule: Q01DX009 (ip), vehicle: saline 110 % of control | dose: 0.63 mg/kg/injection, schedule: Q01DX009 (ip), vehicle: saline 122 % of control | dose: 1.25 mg/kg/injection, schedule: Q01DX009 (ip), vehicle: saline 94 % of control | dose: 2.5 mg/kg/injection, schedule: Q01DX009 (ip), vehicle: saline 106 % of control

C[N+](C)(C)CCCOC(=O)C1C2CC3OC(=O)C1C3C2 (stereo unspecified)
inactive: [1] 101 % of control | [2] 96 % of control

O=C1CC(c2ccc(O)cc2)CC(=O)C1C(=O)Nc1ccccc1 (stereo unspecified)
inactive: [17] 101 % of control | [18] 100 % of control | dose: 400.0 mg/kg/injection, schedule: Q01DX001 (ip), vehicle: other 97 % of control

COc1ccc(N2C(=O)C3C4c5ccccc5C(C3C2=O)[n+]2ccccc24)cc1 (stereo unspecified)
inactive: [1] 97 % of control | [2] 103 % of control

Nc1cc(S(=O)(=O)O)cc2ccccc12
inactive: [6] 92 % of control | [7] 92 % of control | [8] 87 % of control

Nc1ncnc2scnc12
inactive: [6] 102 % of control | [7] 99 % of control | [8] 100 % of control

CCCOC(=O)N(C)c1ccccc1
inactive: dose: 75.0 mg/kg/injection, schedule: Q04DX002 (ip), vehicle: Klucel (hydroxypropylcellulose) (HPC) 101 % of control | dose: 150.0 mg/kg/injection, schedule: Q04DX002 (ip), vehicle: Klucel (hydroxypropylcellulose) (HPC) 101 % of control | dose: 300.0 mg/kg/injection, schedule: Q04DX002 (ip), vehicle: Klucel (hydroxypropylcellulose) (HPC) 101 % of control
